In patent US9227923B2, “Pesticidal carboxamides” (Bayer Intellectual Property GmbH, priority 2009, dated 2016) one finds insecticidal activity and pest or weed control data, which are given here for 40 compounds.

The subject of test [1] is Tobacco Cutworm (Spodoptera litura) Larvae. Put plainly: Test against tobacco cutworm (Spodoptera litura) larvae, leaf dip. Type of test: in vivo. The conditions noted are these: active compound concentration of 100 ppm, third instar larvae, after 7 days. On the procedure: (§1) Solvent: 3 parts by weight of dimethylformamide
(§2) Emulsifier: 1 part by weight of polyoxyethylene alkyl phenyl ether
Leaves of sweet potato were immersed in the test solution at the appropriate concentration, and the leaves were dried in air. The leaves were then placed in a petri dish having a diameter of 9 cm, and ten Spodoptera litura at third instar larvae were released therein. The petri dishes were placed in a temperature-controlled chamber at 25° C. After 2 days and 4 days more sweet potato leaves were added. After 7 days, the number of dead larvae was counted to calculate the insecticidal activity. An insecticidal activity of 100% means that all larvae were killed, whereas an insecticidal activity of 0% means that no larva was killed.

Test [2] deals with Cucurbit Leaf Beetle (Aulacophora Femoralis). Put plainly: Test against cucurbit leaf beetle (Aulacophora femoralis), leaf dip. Type of test: in vivo. The conditions noted are these: active compound concentration of 100 ppm, second instar larvae, after 7 days. How it is done:
as §1, §2
Leaves of cucumber were immersed in the test solution at the appropriate concentration, and the leaves were dried in air. The leaves were then put in a plastic cup containing sterilized black soil and five Aulacophora femoralis at second instar larvae were released in the cup. The cups were placed in a temperature-controlled chamber at 25° C. After 7 days, the number of dead larvae was counted, and thus the insecticidal activity was calculated. An insecticidal activity of 100% means that all larvae were killed, whereas an insecticidal activity of 0% means that no larva was killed.

With `CCc1cc(C(F)(C(F)(F)F)C(F)(F)C(F)(F)F)cc(C)c1NC(=O)c1ccc(CNC(C)=O)c(F)c1` (centres unmarked) [Compound 5-144], the insecticidal activity in test [1] and in test [2] was 100% in each case.
For `CCc1cc(C(F)(C(F)(F)F)C(F)(F)F)cc(C)c1NC(=O)c1ccc(C(C)NC(=O)CC(F)(F)F)cc1` (centres unmarked) [Compound 9-6], the insecticidal activity in test [1] and in test [2] was 100% in each case.
Regarding `Cc1cc(C(F)(C(F)(F)F)C(F)(F)F)cc(C)c1NC(=O)c1ccc(CNC(=O)CC2CC2)cc1` [Compound 5-8], the insecticidal activity in test [1] and in test [2] was 100% each time.
Consider `CCc1cc(C(F)(C(F)(F)F)C(F)(F)F)cc(C)c1NC(=O)c1ccc(CNS(C)(=O)=O)c(Br)c1` [Compound 5-96], for which the insecticidal activity in test [1] and in test [2] was 100% in each case.
With `CCC(=O)NCc1ccc(C(=O)Nc2c(C)cc(C(F)(C(F)(F)F)C(F)(F)F)cc2CC)c(F)c1` [Compound 5-45], the insecticidal activity in test [1] and in test [2] was 100% each time.
On to `CCc1cc(C(F)(C(F)(F)F)C(F)(F)F)cc(C)c1NC(=O)c1ccc(CNC(=O)c2cccnc2F)c2ccccc12` [Compound 6-7], for which the insecticidal activity in test [1] and in test [2] was 100% throughout.
Turning to `CC(=O)NCc1ccc(C(=O)Nc2c(Cl)cc(C(F)(C(F)(F)F)C(F)(F)F)cc2Cl)cc1Cl` [Compound 5-229, 4-(acetamidemethyl)-3-chloro-N-[2,6-dichloro-4-(1,1,1,2,3,3,3-heptafluoropropan-2-yl)phenyl]benzamide], the pest or weed control at 100 ppm was determined as 100% in test [1] (Spodoptera litura, foliar, 168 h, read-out: insecticidal activity) and 100% in test [2] (Aulacophora, foliar, 168 h, read-out: insecticidal activity).
Regarding `CCc1cc(C(F)(C(F)(F)F)C(F)(F)C(F)(F)F)cc(C)c1NC(=O)c1ccc(CNC(=O)C2CC2)c(Cl)c1` (centres unmarked) [Compound 5-152], the insecticidal activity in test [1] and in test [2] was 100% throughout.
Take `CCc1cc(C(F)(C(F)(F)F)C(F)(F)C(F)(F)F)cc(C)c1NC(=O)c1ccc(CNC(=O)CC(F)(F)F)c(I)c1` (centres unmarked) [Compound 5-198]: the insecticidal activity in test [1] and in test [2] was 100% in each case.
As to `CCc1cc(C(F)(C(F)(F)F)C(F)(F)F)cc(C)c1NC(=O)c1ccc(CNC(=O)CC(F)(F)F)c2ccccc12` [Compound 6-6], the insecticidal activity in test [1] and in test [2] was 100% in each case.
Regarding `CCC(=O)NCc1ccc(C(=O)Nc2c(C)cc(C(F)(C(F)(F)F)C(F)(F)C(F)(F)F)cc2CC)c(F)c1F` (centres unmarked) [Compound 5-202], the insecticidal activity in test [1] and in test [2] was 100% each time.
As for `CCc1cc(C(F)(C(F)(F)F)C(F)(F)C(F)(F)F)cc(C)c1NC(=O)c1ccc(CNC(=O)CC(F)(F)F)c(F)c1F` (centres unmarked) [Compound 5-205], the insecticidal activity in test [1] and in test [2] was 100% each time.
With `CC(=O)NCc1ccc(C(=O)Nc2c(C)cc(C(F)(C(F)(F)F)C(F)(F)C(F)(F)F)cc2C)cc1Br` (centres unmarked) [Compound 5-211], the insecticidal activity in test [1] and in test [2] was 100% each time.
In the case of `N#Cc1ccc(C(=O)Nc2c(Cl)cc(C(F)(C(F)(F)F)C(F)(F)F)cc2Cl)cc1` [Compound I-24], the insecticidal activity in test [1] and in test [2] was 100% throughout.
Consider `CCc1cc(C(F)(C(F)(F)F)C(F)(F)F)cc(C)c1NC(=O)c1ccc(CNC(=O)CC2CC2)cc1F` [Compound 5-46], for which the insecticidal activity in test [1] and in test [2] was 100% each time.
For `CCc1cc(C(F)(C(F)(F)F)C(F)(F)F)cc(C)c1NC(=O)c1cc(F)c(CNC(=O)c2cccnc2Cl)cc1F` [Compound 5-183], the insecticidal activity in test [1] and in test [2] was 100% each time.
`CCC(=O)NCc1cc(F)c(C(=O)Nc2c(C)cc(C(F)(C(F)(F)F)C(F)(F)F)cc2CC)cc1F` [Compound 5-59]: the insecticidal activity in test [1] and in test [2] was 100% in each case.
Turning to `CCc1cc(C(F)(C(F)(F)F)C(F)(F)F)cc(C)c1NC(=O)c1ccc(-n2cncn2)c2ccccc12` [Compound 2-2], the insecticidal activity in test [1] and in test [2] was 100% throughout.
With `CCC(=O)NCc1ccc(C(=O)Nc2c(C)cc(C(F)(C(F)(F)F)C(F)(F)C(F)(F)F)cc2CC)cc1F` (centres unmarked) [Compound 5-145], the insecticidal activity in test [1] and in test [2] was 100% throughout.
For `CCc1cc(C(F)(C(F)(F)F)C(F)(F)F)cc(C)c1NC(=O)c1ccc(-n2cncn2)nc1` [Compound 4-2], the insecticidal activity in test [1] and in test [2] was 100% in each case.
For the compound `O=C(Nc1c(Cl)cc(C(F)(C(F)(F)F)C(F)(F)C(F)(F)F)cc1Cl)c1ccc(CNC(=O)C2CC2)cc1` (centres unmarked) [Compound 5-326], the insecticidal activity in test [1] and in test [2] was 100% throughout.
For `CCc1cc(C(F)(C(F)(F)F)C(F)(F)F)cc(C)c1NC(=O)c1ccc(CNC(=O)C2CC2)c(Cl)c1` [Compound 5-79], the insecticidal activity in test [1] and in test [2] was 100% throughout.
For the compound `CC(=O)NCc1ccc(C(=O)Nc2c(C)cc(C(F)(C(F)(F)F)C(F)(F)F)cc2C)c(F)c1` [Compound 5-21], the insecticidal activity in test [1] and in test [2] was 100% each time.
With `N#Cc1ccc(C(=O)Nc2c(Cl)cc(C(F)(C(F)(F)F)C(F)(F)C(F)(F)F)cc2Cl)cc1` (centres unmarked) [Compound I-27], the insecticidal activity in test [1] and in test [2] was 100% throughout.
Take `CCc1cc(C(F)(C(F)(F)F)C(F)(F)F)cc(C)c1NC(=O)c1ccc(CNC(=O)C[S+](C)[O-])c(Br)c1` (centres unmarked) [Compound 5-177]: the insecticidal activity in test [1] and in test [2] was 100% each time.
`CCc1cc(C(F)(C(F)(F)F)C(F)(F)F)cc(C)c1NC(=O)c1ccc(CNC(=O)CS(C)(=O)=O)c(Br)c1` [Compound 5-178]: the insecticidal activity in test [1] and in test [2] was 100% in each case.
For `O=C(Nc1c(Cl)cc(C(F)(C(F)(F)F)C(F)(F)F)cc1Cl)c1ccc(CNC(=O)C2CC2)c(Cl)c1` [Compound 5-231], the insecticidal activity in test [1] and in test [2] was 100% in each case.
For `CCC(=O)NCc1ccc(C(=O)Nc2c(C)cc(C(F)(C(F)(F)F)C(F)(F)C(F)(F)F)cc2C)cc1Br` (centres unmarked) [Compound 5-212], the insecticidal activity in test [1] and in test [2] was 100% throughout.
With `CCc1cc(C(F)(C(F)(F)F)C(F)(F)C(F)(F)F)cc(C)c1NC(=O)c1ccc(CNC(C)=O)c(F)c1F` (centres unmarked) [Compound 5-201], the insecticidal activity in test [1] and in test [2] was 100% in each case.
Turning to `CCC(=O)NCc1ccc(C(=O)Nc2c(C)cc(C(F)(C(F)(F)F)C(F)(F)F)cc2CC)cc1C` [Compound 5-100], the insecticidal activity in test [1] and in test [2] was 100% each time.
Turning to `CCc1cc(C(F)(C(F)(F)F)C(F)(F)F)cc(C)c1NC(=O)c1ccc(CNC(C)=O)c(F)c1F` [Compound 5-51], the insecticidal activity in test [1] and in test [2] was 100% in each case.
`CCc1cc(C(F)(C(F)(F)F)C(F)(F)C(F)(F)F)cc(C)c1NC(=O)c1ccc(CNC(=O)C2CC2)c(F)c1F` (centres unmarked) [Compound 5-203]: the insecticidal activity in test [1] and in test [2] was 100% each time.
Turning to `CCC(=O)NCc1ccc(C(=O)Nc2c(Cl)cc(C(F)(C(F)(F)F)C(F)(F)C(F)(F)F)cc2Cl)cc1` (centres unmarked) [Compound 5-323], the insecticidal activity in test [1] and in test [2] was 100% throughout.
Take `CCC(=O)NCc1ccc(C(=O)Nc2c(C)cc(C(F)(C(F)(F)F)C(F)(F)F)cc2CC)nc1` [Compound 7-3]: the insecticidal activity in test [1] and in test [2] was 100% in each case.
As to `CCc1cc(C(F)(C(F)(F)F)C(F)(F)F)cc(C)c1NC(=O)c1ccc(CNC(C)=O)cn1` [Compound 7-2], the insecticidal activity in test [1] and in test [2] was 100% throughout.
Consider `CCc1cc(C(F)(C(F)(F)F)C(F)(F)F)cc(C)c1NC(=O)c1ccc(CNC(C)=O)nc1` [Compound 8-2], for which the insecticidal activity in test [1] and in test [2] was 100% in each case.
Take `CCc1cc(C(F)(C(F)(F)F)C(F)(F)F)cc(C)c1NC(=O)c1ccc(CNC(=O)c2cccc(F)c2)cc1` [Compound 5-35]: the insecticidal activity in test [1] and in test [2] was 100% throughout.
Take `CCc1cc(C(F)(C(F)(F)F)C(F)(F)F)cc(C)c1NC(=O)c1ccc2c(c1)CCC2NC(=O)CSC` (centres unmarked) [Compound 10-22]: the insecticidal activity in test [1] and in test [2] was 100% throughout.
In the case of `CCc1cc(C(F)(C(F)(F)F)C(F)(F)F)cc(C)c1NC(=O)c1ccc(CNC(=O)c2ccccc2F)cc1` [Compound 5-34], the insecticidal activity in test [1] and in test [2] was 100% in each case.
For the compound `O=C(CC(F)(F)F)NCc1ccc(C(=O)Nc2c(Cl)cc(C(F)(C(F)(F)F)C(F)(F)C(F)(F)F)cc2Cl)cc1` (centres unmarked) [Compound 5-324], the insecticidal activity in test [1] and in test [2] was 100% in each case.
